Drawing on patent US20240270762A1, “PENICILLIN-BINDING PROTEIN INHIBITORS” (priority 2021, published 2024), this text covers MIC and EC50 for six compounds.

One experiment relates to P. aeruginosa CDC-0095. Kind of experiment: microbe, parasite or virus in culture. In kind it is cell-based. The following applies: Pseudomonas aeruginosa, CDC0095, read-out: Minimum inhibitory concentration, P. aeruginosa CDC-0095.
The subject of a further experiment is A. baumannii ATCC 19606. Kind of experiment: microbe, parasite or virus in culture. In kind it is cell-based. The following applies: Acinetobacter baumannii, ATCC19606, read-out: MIC, A. baumannii ATCC 19606.
A further experiment has as its system A. baumannii CDC-0033. Kind of experiment: microbe, parasite or virus in culture. In kind it is cell-based. The following applies: Acinetobacter baumannii, CDC0033, read-out: MIC, A. baumannii CDC-0033.
Another experiment deals with T1, A. baumannii PBP1a (Acinetobacter baumannii, UniProt A0ABX6CK30).
T1 sequence (A0ABX6CK30 1-851): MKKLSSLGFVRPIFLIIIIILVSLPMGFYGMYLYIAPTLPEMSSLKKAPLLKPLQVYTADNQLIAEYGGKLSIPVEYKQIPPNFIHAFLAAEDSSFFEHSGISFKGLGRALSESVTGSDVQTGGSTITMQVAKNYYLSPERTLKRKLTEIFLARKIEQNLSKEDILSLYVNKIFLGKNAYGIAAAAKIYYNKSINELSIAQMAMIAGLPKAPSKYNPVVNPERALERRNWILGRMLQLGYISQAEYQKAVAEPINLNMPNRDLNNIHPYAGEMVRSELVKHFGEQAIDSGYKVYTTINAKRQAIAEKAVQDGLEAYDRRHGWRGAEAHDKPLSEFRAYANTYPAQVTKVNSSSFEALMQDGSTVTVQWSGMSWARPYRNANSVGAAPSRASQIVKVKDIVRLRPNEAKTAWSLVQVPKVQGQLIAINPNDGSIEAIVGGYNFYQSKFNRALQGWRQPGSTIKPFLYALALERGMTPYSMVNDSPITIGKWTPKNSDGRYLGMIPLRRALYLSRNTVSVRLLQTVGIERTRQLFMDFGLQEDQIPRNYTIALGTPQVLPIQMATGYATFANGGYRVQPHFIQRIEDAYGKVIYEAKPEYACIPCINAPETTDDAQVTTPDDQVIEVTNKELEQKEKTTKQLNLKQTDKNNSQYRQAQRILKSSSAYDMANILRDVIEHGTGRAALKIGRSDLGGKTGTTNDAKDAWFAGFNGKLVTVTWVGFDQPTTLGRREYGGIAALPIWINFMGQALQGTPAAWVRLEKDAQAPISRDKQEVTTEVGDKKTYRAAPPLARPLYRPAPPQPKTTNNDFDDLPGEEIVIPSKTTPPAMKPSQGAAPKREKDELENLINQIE
Put plainly: Bocillin-FL competition binding via gel filtration, A. baumannii PBP1a. The following applies: competition binding assay using Bocillin-FL via gel filtration; read-out: A. baumannii PBP1a Potency. The procedure, abridged:
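Competitive equilibrium binding with Bocillin-FL reporter: PBP pre-incubated with inhibitor dilutions, Bocillin-FL added, 15 min incubation. Labelled enzyme isolated by size-exclusion spin plates, fluorescence measured; EC50 obtained by fitting bound fraction against inhibitor concentration with a Hill-coefficient model.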

Experiment [1] has as its target T2, PBP3 from Escherichia coli (K-12) (Escherichia coli, UniProt P0AD68).
T2 construct: made in house
Put plainly: Bocillin-FL fluorescence polarization competition binding, E. coli PBP3. In outline: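 Purified PBP was preincubated with inhibitor (E. coli PBP3 1.5 μM, 30 min; P. aeruginosa PBP3 0.75 μM, A. baumannii PBP3 0.2 μM and PBP1a 1 μM, 15 min), then Bocillin-FL (0.1 μM; 0.05 μM for PBP1a) added and FP read up to 60 min. EC50 = 50% loss of bound probe.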

In brackets after ≈: the same amount, converted by molar mass.

T2 sequence (P0AD68 1-577): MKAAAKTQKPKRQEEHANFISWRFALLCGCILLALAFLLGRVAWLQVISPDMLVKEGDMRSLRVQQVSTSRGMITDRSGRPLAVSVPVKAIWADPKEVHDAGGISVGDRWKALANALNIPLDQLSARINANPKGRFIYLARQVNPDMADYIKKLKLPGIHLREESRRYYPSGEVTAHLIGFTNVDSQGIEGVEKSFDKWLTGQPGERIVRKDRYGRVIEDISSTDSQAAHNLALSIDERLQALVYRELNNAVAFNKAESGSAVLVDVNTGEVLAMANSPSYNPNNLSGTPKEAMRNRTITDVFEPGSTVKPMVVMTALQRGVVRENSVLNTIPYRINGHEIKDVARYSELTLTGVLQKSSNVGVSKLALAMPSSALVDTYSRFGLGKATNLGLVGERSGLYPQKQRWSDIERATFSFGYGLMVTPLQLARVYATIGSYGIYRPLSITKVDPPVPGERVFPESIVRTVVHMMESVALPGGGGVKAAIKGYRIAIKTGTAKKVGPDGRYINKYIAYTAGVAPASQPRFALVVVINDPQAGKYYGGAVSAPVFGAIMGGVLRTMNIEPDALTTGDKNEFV

As to `O=C(O)c1c(F)ccc2c1OB(O)[C@@H](NC(=O)[C@@H](NC(=O)N1CCN(C3CCN(C(=O)Nc4ccc(O)cc4)CC3)C1=O)c1cc(F)c(O)c(O)c1Cl)C2` (single isomer, unassigned) [Example 467], the MIC in the experiment on P. aeruginosa CDC-0095, in the experiment with A. baumannii ATCC 19606 and in the experiment on A. baumannii CDC-0033 was below 1 µg/mL each time. In addition, at A. baumannii PBP1a, the EC50 is below 10 µM.

Turning to `O=C(NCCCS(=O)(=O)N1CCN(C(=O)NC(C(=O)N[C@H]2Cc3ccc(F)c(C(=O)O)c3OB2O)c2cc(F)c(O)c(O)c2Cl)C1=O)Nc1cccnc1` (stereo partly drawn) [Example 278, (3R)-3-(2-(2-chloro-5-fluoro-3,4-dihydroxyphenyl)-2-(2-oxo-3-((3-(3-(pyridin-3-yl)ureido)propyl)sulfonyl)imidazolidine-1-carboxamido)acetamido)-7-fluoro-2-hydroxy-3,4-dihydro-2H-benzo[e][1,2]oxaborinine-8-carboxylic acid], the MIC with P. aeruginosa CDC-0095 was 8 to 16 µg/mL (≈ 10.1 to 20.1 µM); in the experiment with A. baumannii ATCC 19606 it was below 1 µg/mL; with A. baumannii CDC-0033, 8 to 16 µg/mL (≈ 10.1 to 20.1 µM). For the same compound, the EC50 in experiment [1] was below 10 µM; at A. baumannii PBP1a, 10 to 50 µM.

For `O=C(NCCCN1CCN(C(=O)N[C@@H](C(=O)N[C@H]2Cc3ccc(F)c(C(=O)O)c3OB2O)c2cc(F)c(O)c(O)c2Cl)C(=O)C1=O)c1ccnc(F)c1F` [Example 300, (R)-3-((R)-2-(2-chloro-5-fluoro-3,4-dihydroxyphenyl)-2-(4-(3-(2,3-difluoroisonicotinamido)propyl)-2,3-dioxopiperazine-1-carboxamido)acetamido)-7-fluoro-2-hydroxy-3,4-dihydro-2H-benzo[e][1,2]oxaborinine-8-carboxylic acid], the MIC in the experiment on P. aeruginosa CDC-0095 was 2 to 4 µg/mL (≈ 2.56 to 5.12 µM); in the experiment with A. baumannii ATCC 19606, below 1 µg/mL; with A. baumannii CDC-0033 it was 2 to 4 µg/mL (≈ 2.56 to 5.12 µM). For the same compound, the EC50 in experiment [1] is below 10 µM; at A. baumannii PBP1a, 10 to 50 µM.

With `Cc1cc(C(=O)NCCCN2CCN(C(=O)NC(C(=O)N[C@H]3Cc4ccc(F)c(C(=O)O)c4OB3O)c3cc(F)c(O)c(O)c3Cl)C(=O)C2=O)c(F)cn1` (stereo partly drawn) [Example 301, (3R)-3-(2-(2-chloro-5-fluoro-3,4-dihydroxyphenyl)-2-(4-(3-(5-fluoro-2-methylisonicotinamido)propyl)-2,3-dioxopiperazine-1-carboxamido)acetamido)-7-fluoro-2-hydroxy-3,4-dihydro-2H-benzo[e][1,2]oxaborinine-8-carboxylic acid], the MIC in the experiment on P. aeruginosa CDC-0095 was below 1 µg/mL; in the experiment on A. baumannii ATCC 19606, below 1 µg/mL; with A. baumannii CDC-0033 it was 2 to 4 µg/mL (≈ 2.57 to 5.15 µM). For the same compound, the figures for the EC50 (in experiment [1]; on A. baumannii PBP1a) were below 10 µM and 10 to 50 µM, respectively.

As to `O=C(NCCCN1CCN(C(=O)N[C@@H](C(=O)N[C@H]2Cc3ccc(F)c(C(=O)O)c3OB2O)c2cc(F)c(O)c(O)c2Cl)C(=O)C1=O)c1cccc(O)c1Cl` [Example 303, (R)-3-((R)-2-(4-(3-(2-chloro-3-hydroxybenzamido)propyl)-2,3-dioxopiperazine-1-carboxamido)-2-(2-chloro-5-fluoro-3,4-dihydroxyphenyl)acetamido)-7-fluoro-2-hydroxy-3,4-dihydro-2H-benzo[e][1,2]oxaborinine-8-carboxylic acid], the figures for the MIC in the experiment on P. aeruginosa CDC-0095, with A. baumannii ATCC 19606 and with A. baumannii CDC-0033 were below 1 µg/mL, below 1 µg/mL and 2 to 4 µg/mL (≈ 2.52 to 5.04 µM), respectively. Also, the EC50 (in experiment [1]; on A. baumannii PBP1a) was below 10 µM in each case.

With `O=C(NCCCN1CCN(C(=O)NC(C(=O)N[C@H]2Cc3ccc(F)c(C(=O)O)c3OB2O)c2cc(F)c(O)c(O)c2Cl)C(=O)C1=O)c1ccc(O)c(F)c1` (stereo partly drawn) [Example 304, (3R)-3-(2-(2-chloro-5-fluoro-3,4-dihydroxyphenyl)-2-(4-(3-(3-fluoro-4-hydroxybenzamido)propyl)-2,3-dioxopiperazine-1-carboxamido)acetamido)-7-fluoro-2-hydroxy-3,4-dihydro-2H-benzo[e][1,2]oxaborinine-8-carboxylic acid], the results for the MIC in the experiment with P. aeruginosa CDC-0095, in the experiment on A. baumannii ATCC 19606 and with A. baumannii CDC-0033 were below 1 µg/mL, below 1 µg/mL and 2 to 4 µg/mL (≈ 2.57 to 5.14 µM), respectively. The EC50 (in experiment [1]; on A. baumannii PBP1a) was below 10 µM in each case.
